From paper PMC9501633, “Synthesis, Characterisation and Mechanism of Action of Anticancer 3-Fluoroazetidin-2-ones” (Pharmaceuticals, 2022)

Columns and labels:
[1] = test system: MALME-3M; assay: NCI 60 cell line screen, Melanoma; type: cell-based, human; details: one dose 10 µM
[2] = test system: HL-60(TB); assay: NCI 60 cell line screen, Leukaemia; type: cell-based, human; details: one dose 10 µM
[3] = test system: PC-3; assay: NCI 60 cell line screen, Prostate; type: cell-based, human; details: one dose 10 µM
[4] = test system: OVCAR-5; assay: NCI 60 cell line screen, Ovarian; type: cell-based, human; details: one dose 10 µM
[5] = test system: OVCAR-3; assay: NCI 60 cell line screen, Ovarian; type: cell-based, human; details: one dose 10 µM
[6] = test system: HCT-15; assay: NCI 60 cell line screen, Colon; type: cell-based, human; details: one dose 10 µM
[7] = test system: IGROV1; assay: NCI 60 cell line screen, Ovarian; type: cell-based, human
[8] = test system: NCI-H522; assay: NCI 60 cell line screen, NSCLung; type: cell-based, human; details: one dose 10 µM
[9] = test system: MOLT-4; assay: NCI 60 cell line screen, Leukaemia; type: cell-based, human; details: one dose 10 µM
[10] = test system: M14; assay: NCI 60 cell line screen, Melanoma; type: cell-based, human; details: one dose 10 µM
[11] = test system: BT-549; assay: NCI 60 cell line screen, Breast; type: cell-based, human; details: one dose 10 µM
[12] = test system: ACHN; assay: NCI 60 cell line screen, Renal; type: cell-based, human; details: one dose 10 µM
[13] = test system: T-47D; assay: NCI 60 cell line screen, Breast; type: cell-based, human; details: one dose 10 µM
[14] = test system: RPMI-8226; assay: NCI 60 cell line screen, Leukaemia; type: cell-based, human; details: one dose 10 µM
[15] = test system: MDA-MB-468; assay: NCI 60 cell line screen, Breast; type: cell-based, human; details: one dose 10 µM
[16] = test system: NCI/ADR-RES; assay: NCI 60 cell line screen, Ovarian; type: cell-based, human; details: one dose 10 µM
[17] = test system: SNB-19; assay: NCI 60 cell line screen, CNS; type: cell-based, human; details: one dose 10 µM
[18] = test system: HS 578T; assay: NCI 60 cell line screen, Breast; type: cell-based, human; details: one dose 10 µM
[19] = test system: NCI 60 cell line panel; assay: NCI 60 cell line screen, whole panel; type: cell-based
Method: The antiproliferative effects of selected compounds 33, 37 and 43 were initially evaluated in the NCI 60 cell line screen at 10 μM concentration (see Supplementary Materials Table S3). […] . […] .
Compound 33 was next selected for evaluation in the NCI 60 cell line five-dose screen. The GI50 (50% growth inhibition), TGI (total growth inhibition) and LC50 (50% lethal concentration) were determined in the NCI panel of 60 cell lines, using the sulphorhodamine B (SRB) protein assay (Table 5). The GI50 value provides the growth inhibition of the selected compound, while the cytotoxic effect is evaluated in the LC50 value. […] . […] . Glioblastoma is an aggressive and fast-growing brain tumour with a median survival time of 9–16 months from diagnosis, and these tumours quickly evolve resistance to temozolomide chemotherapy, which is the only FDA-approved treatment. […] . Further mechanistic and cellular studies were carried out and are described below.
(§1) aData obtained from NCI in vitro human tumour cell screen 1 dose assay (10 µM). 33 (NCI

[20] = test system: 786–0; assay: NCI 60 cell line screen, Renal; type: cell-based, human; details: 786-0, one dose 10 µM
[21] = test system: UO-31; assay: NCI 60 cell line screen, Renal; type: cell-based, human; details: one dose 10 µM
[22] = test system: SN12C; assay: NCI 60 cell line screen, Renal; type: cell-based, human; details: one dose 10 µM
[23] = test system: A498; assay: NCI 60 cell line screen, Renal; type: cell-based, human; details: one dose 10 µM
[24] = test system: SF-268; assay: NCI 60 cell line screen, CNS; type: cell-based, human; details: one dose 10 µM
[25] = test system: leukaemia panel; assay: NCI 60 cell line one-dose screen, panel mean; type: cell-based; details: Homo sapiens, one dose 10 μM, read-out: mean growth inhibition
Method: The antiproliferative effects of selected compounds 33, 37 and 43 were initially evaluated in the NCI 60 cell line screen at 10 μM concentration (see Supplementary Materials Table S3).
as §1

[26] = test system: KM12; assay: NCI 60 cell line screen, Colon; type: cell-based, human; details: one dose 10 µM
[27] = test system: SF-539; assay: NCI 60 cell line screen, CNS; type: cell-based, human; details: one dose 10 µM
[28] = test system: SK-OV-3; assay: NCI 60 cell line screen, Ovarian; type: cell-based, human; details: one dose 10 µM
[29] = test system: UACC-257; assay: NCI 60 cell line screen, Melanoma; type: cell-based, human; details: one dose 10 µM
[30] = test system: SR; assay: NCI 60 cell line screen, Leukaemia; type: cell-based, human; details: one dose 10 µM
[31] = test system: NCI-H23; assay: NCI 60 cell line screen, NSCLung; type: cell-based, human; details: one dose 10 µM
[32] = test system: K-562; assay: NCI 60 cell line screen, Leukaemia; type: cell-based, human

CCOc1ccc(C2N(c3cc(OC)c(OC)c(OC)c3)C(=O)C2(F)F)cc1 (stereo not drawn) [Compound 37, 4-(4-Ethoxyphenyl)-3,3-difluoro-1-(3,4,5-trimethoxyphenyl)azetidin-2-one]
inhibition at 10 µM ([1]; Homo sapiens): 36.9%
Growth % [1]: 63.07%
inhibition at 10 µM ([2]; Homo sapiens): 116%
Growth % [2]: -15.97%
inhibition at 10 µM ([3]; Homo sapiens): 62.7%
Growth % [3]: 37.3%
inhibition at 10 µM ([4]; Homo sapiens): 33.5%
Growth % [4]: 66.47%
inhibition at 10 µM ([5]; Homo sapiens): 92.8%
Growth % [5]: 7.25%
inhibition at 10 µM ([6]; Homo sapiens): 77.5%
Growth % [6]: 22.55%
inhibition at 10 µM ([7]; Homo sapiens, IGROV-1, one dose 10 µM): 62.2%
Growth % ([7]; one dose 10 µM): 37.8%
inhibition at 10 µM ([8]; Homo sapiens): 80.7%
Growth % [8]: 19.28%
inhibition at 10 µM ([9]; Homo sapiens): 81.9%
Growth % [9]: 18.14%
inhibition at 10 µM ([10]; Homo sapiens): 72.5%
Growth % [10]: 27.45%
inhibition at 10 µM ([11]; Homo sapiens): 55.8%
Growth % [11]: 44.17%
inhibition at 10 µM ([12]; Homo sapiens): 44.8%
Growth % [12]: 55.25%
inhibition at 10 µM ([13]; Homo sapiens, T47D): 30%
Growth % [13]: 70.03%
inhibition at 10 µM ([14]; Homo sapiens): 85.4%
Growth % [14]: 14.64%
inhibition at 10 µM ([15]; Homo sapiens): 65.1%
Growth % [15]: 34.89%
inhibition at 10 µM ([16]; Homo sapiens): 71.1%
Growth % [16]: 28.94%
inhibition at 10 µM ([17]; Homo sapiens): 45.9%
Growth % [17]: 54.14%
inhibition at 10 µM ([18]; Homo sapiens): 62.6%
Growth % [18]: 37.42%
inhibition at 10 µM ([19]; Homo sapiens, 60 cell, one dose 10 μM, mean over the 60 cell lines, read-out: mean growth inhibition): 59%
mean Growth % ([19]; one dose 10 µM, mean over the cell lines): 41.05%
Growth % [20]: 64.68%
inhibition at 10 µM ([20]; Homo sapiens): 35.3%
inhibition at 10 µM ([21]; Homo sapiens): 48.1%
Growth % [21]: 51.9%
inhibition at 10 µM ([22]; Homo sapiens): 49%
Growth % [22]: 50.97%
inhibition at 10 µM ([23]; Homo sapiens): 7.7%
Growth % [23]: 92.3%
inhibition at 10 µM ([24]; Homo sapiens): 47.6%
Growth % [24]: 52.38%
inhibition at 10 µM [25]: 91.4%
inhibition at 10 µM ([26]; Homo sapiens): 72%
Growth % [26]: 27.97%
inhibition at 10 µM ([27]; Homo sapiens): 89.2%
Growth % [27]: 10.75%
inhibition at 10 µM ([28]; Homo sapiens): 28.1%
Growth % [28]: 71.89%
inhibition at 10 µM ([29]; Homo sapiens): 41.3%
Growth % [29]: 58.69%
inhibition at 10 µM ([30]; Homo sapiens): 83.8%
Growth % [30]: 16.25%
inhibition at 10 µM ([31]; Homo sapiens): 66.4%
Growth % [31]: 33.57%
inhibition at 10 µM ([32]; Homo sapiens, K562, one dose 10 µM): 91.5%
Growth % ([32]; one dose 10 µM): 8.49%
